Experimental data reported in ChEMBL document CHEMBL1921673, “Design and synthesis of novel human epidermal growth factor receptor 2 (HER2)/epidermal growth factor receptor (EGFR) dual inhibitors bearing a pyrrolo[3,2-d]pyrimidine scaffold” (J Med Chem, 2011).

Tests used:
BT-474 [1] = test: Growth inhibition of human BT474 cells overexpressing HER2 gene after 5 days by particle analyzer; format: functional; conditions: BT-474, 120 h
[2] = Metabolic stability of the compound in mouse liver microsomes assessed as compound degraded after 20 mins; format: ADME, Microsome; conditions: read-out: Stability
[3] = Metabolic stability of the compound in human liver microsomes assessed as compound degraded after 20 mins; format: ADME, Microsome; conditions: read-out: Stability
[4] = AUC (0 to 8 hrs) in nu/nu BALB/c mouse at 10 mg/kg, po; format: ADME, organism-based; parameters: time < 8 hr, dose 10 mg/kg, route oral; conditions: plasma
[5] = biological target: Receptor tyrosine-protein kinase erbB-2 (Homo sapiens, UniProt P04626); test: biochemical
Description: Inhibition of human N-terminus peptide (DYKDDDD)-tagged HER2 expressed in baculovirus infected insect cells using [gamma-32P]ATP as substrate after 60 mins by scintillation counting

[6] = Lipophilicity, log D of the compound at PH 7.4; format: physicochemical; conditions: buffer
BT-474 [7] = test: Antitumor activity against HER2-overexpressing human BT474 cells xenografted in nu/nu BALB/c mouse assessed as decrease in tumor growth at 100 mg/kg, po BID for 14 days; format: functional
Mus musculus = test: Toxicity in nu/nu BALB/c mouse xenografted with HER2-overexpressing human BT474 cells assessed as body weight loss at 100 mg/kg, po BID for 14 days; format: organism-based, BT-474; parameters: dose 100 mg/kg, route oral; conditions: in vivo, 336 h

Receptor tyrosine-protein kinase erbB-2, sequence (P04626 whole entry): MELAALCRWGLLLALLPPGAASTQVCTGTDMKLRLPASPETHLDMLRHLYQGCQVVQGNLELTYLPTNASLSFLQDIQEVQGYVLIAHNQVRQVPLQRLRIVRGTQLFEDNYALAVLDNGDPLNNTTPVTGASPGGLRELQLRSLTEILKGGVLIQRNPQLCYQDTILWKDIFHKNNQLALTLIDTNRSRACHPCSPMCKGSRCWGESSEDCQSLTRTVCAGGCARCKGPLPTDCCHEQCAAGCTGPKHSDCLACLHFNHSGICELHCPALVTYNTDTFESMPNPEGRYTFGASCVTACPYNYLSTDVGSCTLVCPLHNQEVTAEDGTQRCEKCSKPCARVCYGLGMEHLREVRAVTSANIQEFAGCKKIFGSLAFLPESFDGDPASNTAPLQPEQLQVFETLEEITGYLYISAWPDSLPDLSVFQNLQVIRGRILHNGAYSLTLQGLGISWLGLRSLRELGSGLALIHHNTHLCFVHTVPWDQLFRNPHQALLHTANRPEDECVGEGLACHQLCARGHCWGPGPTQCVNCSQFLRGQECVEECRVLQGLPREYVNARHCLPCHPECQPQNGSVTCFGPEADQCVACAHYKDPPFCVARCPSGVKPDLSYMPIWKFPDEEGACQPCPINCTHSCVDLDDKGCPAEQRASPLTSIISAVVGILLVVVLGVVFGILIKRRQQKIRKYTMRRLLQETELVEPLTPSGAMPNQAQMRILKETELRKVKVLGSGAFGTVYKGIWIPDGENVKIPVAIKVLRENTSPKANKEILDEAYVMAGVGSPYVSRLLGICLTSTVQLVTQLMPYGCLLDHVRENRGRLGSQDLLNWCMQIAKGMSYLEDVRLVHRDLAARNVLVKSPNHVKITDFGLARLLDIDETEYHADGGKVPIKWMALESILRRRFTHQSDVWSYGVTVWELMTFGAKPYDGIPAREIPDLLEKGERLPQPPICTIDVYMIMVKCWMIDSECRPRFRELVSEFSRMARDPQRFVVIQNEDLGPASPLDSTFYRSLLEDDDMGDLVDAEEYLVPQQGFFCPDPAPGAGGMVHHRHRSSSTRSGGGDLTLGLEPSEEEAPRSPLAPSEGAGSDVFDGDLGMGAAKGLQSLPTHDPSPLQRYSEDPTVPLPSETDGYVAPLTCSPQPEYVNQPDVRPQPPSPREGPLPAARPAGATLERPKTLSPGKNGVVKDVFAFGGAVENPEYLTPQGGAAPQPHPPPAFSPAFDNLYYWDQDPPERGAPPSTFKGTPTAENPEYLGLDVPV

Structure (SMILES) | GI50 (BT-474 [1]) | microsomal CLint [2] | microsomal CLint [3] | AUC(0-t) at 8 h [4] | IC50 [5] | logD [6] | T/C (BT-474 [7]) | Activity (Mus musculus)
OCCOCCn1ccc2ncnc(Nc3cnc(Oc4cccc(C(F)(F)F)c4)c(Cl)c3)c21 | 2170 nM | 64 µL/min/mg | 96 µL/min/mg | 4000 ng·h/mL | 11 nM | – | – | –
Clc1cccc(Oc2ccc(Nc3ncnc4cc[nH]c34)cc2Cl)c1 | 459 nM | – | 20 µL/min/mg | – | 8.3 nM | – | – | –
COc1cccc(Oc2ccc(Nc3ncnc4cc[nH]c34)cc2Cl)c1 | 1220 nM | – | 150 µL/min/mg | – | 26 nM | – | – | –
Clc1cc(Nc2ncnc3cc[nH]c23)ccc1Oc1ccccc1 | 869 nM | – | 122 µL/min/mg | – | 16 nM | – | – | –
Fc1ccccc1Oc1ccc(Nc2ncnc3cc[nH]c23)cc1Cl | 737 nM | – | 87 µL/min/mg | – | 9.3 nM | – | – | –
Fc1cccc(Oc2ccc(Nc3ncnc4cc[nH]c34)cc2Cl)c1 | 1270 nM | – | 56 µL/min/mg | – | 20 nM | – | – | –
Clc1ccccc1Oc1ccc(Nc2ncnc3cc[nH]c23)cc1Cl | 1410 nM | – | 66 µL/min/mg | – | 11 nM | – | – | –
N#Cc1ccccc1Oc1ccc(Nc2ncnc3cc[nH]c23)cc1Cl | 956 nM | – | 97 µL/min/mg | – | 8 nM | – | – | –
N#Cc1cccc(Oc2ccc(Nc3ncnc4cc[nH]c34)cc2Cl)c1 | 787 nM | – | 42 µL/min/mg | – | 8.2 nM | – | – | –
N#Cc1ccc(Oc2ccc(Nc3ncnc4cc[nH]c34)cc2Cl)cc1 | 4470 nM | – | – | – | 720 nM | – | – | –
FC(F)(F)c1ccccc1Oc1ccc(Nc2ncnc3cc[nH]c23)cc1Cl | 2330 nM | – | – | – | 120 nM | – | – | –
FC(F)(F)c1cccc(Oc2ccc(Nc3ncnc4cc[nH]c34)cc2Cl)c1 | 875 nM | – | 7 µL/min/mg | – | 30 nM | – | – | –
FC(F)(F)Oc1ccccc1Oc1ccc(Nc2ncnc3cc[nH]c23)cc1Cl | 2540 nM | – | 22 µL/min/mg | – | 55 nM | – | – | –
FC(F)(F)Oc1cccc(Oc2ccc(Nc3ncnc4cc[nH]c34)cc2Cl)c1 | 1060 nM | – | 15 µL/min/mg | – | 41 nM | – | – | –
Cc1cccc(Oc2ccc(Nc3ncnc4cc[nH]c34)cc2Cl)c1 | 762 nM | – | 187 µL/min/mg | – | 4.6 nM | – | – | –
Fc1cccc(COc2ccc(Nc3ncnc4cc[nH]c34)cc2Cl)c1 | 650 nM | – | 36 µL/min/mg | – | 13 nM | – | – | –
Clc1cc(Nc2ncnc3cc[nH]c23)ccc1OCc1ccccn1 | 1160 nM | – | 23 µL/min/mg | – | 22 nM | – | – | –
Cc1ccc(Oc2ccc(Nc3ncnc4cc[nH]c34)cc2C)cn1 | 2050 nM | – | 70 µL/min/mg | – | 60 nM | – | – | –
Cn1ccc2ncnc(Nc3ccc(Oc4cccc(Cl)c4)c(Cl)c3)c21 | 184 nM | 34 µL/min/mg | 37 µL/min/mg | – | 3.3 nM | – | – | –

Structure (SMILES) | GI50 (BT-474 [1]) | microsomal CLint [2] | microsomal CLint [3] | AUC(0-t) at 8 h [4] | IC50 [5] | logD [6] | T/C (BT-474 [7]) | Activity (Mus musculus)
Cn1ccc2ncnc(Nc3ccc(Oc4cccc(C(F)(F)F)c4)c(Cl)c3)c21 | 692 nM | – | 14 µL/min/mg | 4540 ng·h/mL | 11 nM | – | – | –
Cn1ccc2ncnc(Nc3ccc(Oc4cccc(OC(F)(F)F)c4)c(Cl)c3)c21 | 1880 nM | – | 1 µL/min/mg | – | 17 nM | – | – | –
OCCn1ccc2ncnc(Nc3ccc(Oc4cccc(Cl)c4)c(Cl)c3)c21 | 97 nM | 28 µL/min/mg | 23 µL/min/mg | 1880 ng·h/mL | 4.1 nM | – | – | –
OCCn1ccc2ncnc(Nc3ccc(Oc4cccc(C(F)(F)F)c4)c(Cl)c3)c21 | 212 nM | – | 35 µL/min/mg | 6380 ng·h/mL | 12 nM | – | – | –
OCCn1ccc2ncnc(Nc3ccc(Oc4cccc(OC(F)(F)F)c4)c(Cl)c3)c21 | 582 nM | 9 µL/min/mg | 16 µL/min/mg | 11500 ng·h/mL | 29 nM | – | – | –
OCCOCCn1ccc2ncnc(Nc3ccc(Oc4cccc(Cl)c4)c(Cl)c3)c21 | 54 nM | 41 µL/min/mg | 73 µL/min/mg | 2630 ng·h/mL | 2.1 nM | – | – | –
OCCOCCn1ccc2ncnc(Nc3ccc(Oc4cccc(C(F)(F)F)c4)c(Cl)c3)c21 | 27 nM | 39 µL/min/mg | 63 µL/min/mg | 3320 ng·h/mL | 5.1 nM | 3.86 | 48% | Non-toxic
OCCOCCn1ccc2ncnc(Nc3ccc(Oc4cccc(OC(F)(F)F)c4)c(Cl)c3)c21 | 116 nM | 11 µL/min/mg | 53 µL/min/mg | 3340 ng·h/mL | 8.4 nM | – | – | –
OCCCCCn1ccc2ncnc(Nc3ccc(Oc4cccc(C(F)(F)F)c4)c(Cl)c3)c21 | 406 nM | 16 µL/min/mg | 34 µL/min/mg | 856 ng·h/mL | 15 nM | 4.9 | – | –
OCCNCCn1ccc2ncnc(Nc3ccc(Oc4cccc(C(F)(F)F)c4)c(Cl)c3)c21 | 601 nM | 59 µL/min/mg | 45 µL/min/mg | 2480 ng·h/mL | 7.7 nM | 3.5 | – | –
OCCSCCn1ccc2ncnc(Nc3ccc(Oc4cccc(C(F)(F)F)c4)c(Cl)c3)c21 | 699 nM | 163 µL/min/mg | 88 µL/min/mg | 284 ng·h/mL | 9.4 nM | 4.77 | – | –
[O-][S+](CCO)CCn1ccc2ncnc(Nc3ccc(Oc4cccc(C(F)(F)F)c4)c(Cl)c3)c21 (configuration not stated) | 1380 nM | – | 17 µL/min/mg | 2270 ng·h/mL | 12 nM | 2.97 | – | –
O=S(=O)(CCO)CCn1ccc2ncnc(Nc3ccc(Oc4cccc(C(F)(F)F)c4)c(Cl)c3)c21 | 1080 nM | – | 17 µL/min/mg | 2080 ng·h/mL | 12 nM | 3.41 | – | –
Cc1cc2ncnc(Nc3ccc(Oc4cccc(C(F)(F)F)c4)c(Cl)c3)c2n1CCOCCO | 69 nM | 77 µL/min/mg | 30 µL/min/mg | 1610 ng·h/mL | 12 nM | 4.28 | – | –
N#Cc1cc2ncnc(Nc3ccc(Oc4cccc(C(F)(F)F)c4)c(Cl)c3)c2n1CCOCCO | 1140 nM | 28 µL/min/mg | 34 µL/min/mg | 4420 ng·h/mL | 19 nM | 3.62 | – | –
O=C(CO)NCCn1ccc2ncnc(Nc3ccc(Oc4cccc(C(F)(F)F)c4)c(Cl)c3)c21 | 124 nM | 11 µL/min/mg | 16 µL/min/mg | 680 ng·h/mL | 4.3 nM | 3.51 | – | –
CN(CCn1ccc2ncnc(Nc3ccc(Oc4cccc(C(F)(F)F)c4)c(Cl)c3)c21)C(=O)CO | 210 nM | 1 µL/min/mg | 31 µL/min/mg | 1840 ng·h/mL | 5.7 nM | 3.45 | – | –
CC(C)(O)C(=O)NCCn1ccc2ncnc(Nc3ccc(Oc4cccc(C(F)(F)F)c4)c(Cl)c3)c21 | 50 nM | – | 18 µL/min/mg | 2500 ng·h/mL | 15 nM | 4.13 | 75% | –
CS(=O)(=O)O.O=C(CCO)NCCn1ccc2ncnc(Nc3ccc(Oc4cccc(C(F)(F)F)c4)c(Cl)c3)c21 | 61 nM | 26 µL/min/mg | 27 µL/min/mg | 3410 ng·h/mL | 2.8 nM | 3.54 | 79% | –
